# In PubChem BioAssay AID2060502 (Molecular Pharmacology Branch, DTP, NCI, 2025):
# Values joined by “and” are separate entries in the source; they are usually repeats but may differ in a detail not shown here. Identical values can stand only once.
# Test system: 885724-159-R-J1-PDC complex spheroid viability
# Assay: Anticancer human tumor 885724-159-R-J1-PDC patient-derived pancreatic adenocarcinoma cell line growth inhibition [GQUAD]
# Conditions: for viability, T/C: stronger effect = lower value
# Description: DNA G-quadruplex Stabilizer Agents in Combinations in Complex Spheroids
# A high-throughput screen of multi-cell type tumor spheroids was designed to identify active combinations of DNA G-quadruplex stabilizer agents and targeted small molecules. Complex spheroids include a stromal component modeled by human endothelial cells (HUVEC) and fibroblasts modeled by human mesenchymal stem cells (MSCs). The concentration ranges selected for each drug and investigational agent were based upon clinically achievable concentrations if the clinical Cmax of the agent was known.
# Compounds. The drugs and investigational agents: pidnarulex (CX-5461; NSC782164), APTO-253 (NSC789042), BRACO-19 (NSC847499), peposertib (NSC802822), ceralasertib (NSC780249), elimusertib (NSC800525), camonsertib (NSC841442), AZD-1390 (NSC803789), olaparib (NSC753686), talazoparib (NSC767125), ART-558 (NSC835418), sotorasib (NSC818433), MRTX-1133 (NSC836407), SN-38 (NSC673596), topotecan (NSC609699), etoposide (NSC141540), doxorubicin (NSC123127), gemcitabine (NSC613327), 5-fluorouracil (NSC19893), paclitaxel (NSC125973), vemurafenib (NSC761431), panobinostat (NSC761190), R-306465 (JNJ-16241199; NSC773264), adavosertib (NSC754352), TP-3654 (NSC805149), carboplatin (NSC241240), KSQ-4279 (NSC840948), and staurosporine (NSC755774) were obtained from the National Cancer Institute (NCI) Developmental Therapeutics Program Chemical Repository (34). The FDA-approved anticancer drug set is available from the NCI Developmental Therapeutics Program. […] The stock solutions were prepared in dimethyl sulfoxide (DMSO, Sigma-Aldrich, St. Louis, MO, cat. D2650) at 800-fold the tested concentration and stored at -70 degrees C prior to their use. All drugs and investigational agents were tested over a range starting from a high concentration at or near the clinical Cmax and decreasing in half-log increments. If the clinical Cmax for an agent had not been determined, the highest concentration tested was 10 microM.
# 2.3 Cell Culture. All cells were maintained in an incubator at 37 degrees C and 5% CO2 with 95% humidity. The PDC lines were cultured according to standard operating procedures established by the NCI PDMR. All PDCs were thawed and cultured in Matrigel-coated flasks prepared with a working solution of 1X Ham's F-12 nutrient mix, without supplementation (Invitrogen, cat. 11765054), 100 U/mL penicillin-streptomycin (Invitrogen, cat. 15140122), and 2.5% Matrigel (Corning Inc., cat. 354248) for the first three passages. The 857933-349-R-J2-PDC line was cultured in 6C/Colon 1B media, which includes advanced DMEM/F-12 (Thermo Fisher Scientific, cat. 12634028), 10 mM HEPES (Thermo Fisher Scientific, cat. 15630080), 1X GlutaMAX supplement (Thermo Fisher Scientific, cat. 35050061), 0.1 mg/mL primocin (InvivoGen, cat. ant-pm-2), 10% defined fetal bovine serum, heat inactivated (HyClone Laboratories Inc., cat. SH30070.03HI), 50% L-WRN conditioned media (ATCC, cat. CRL-3276), 1.25 mM N-Acetyl-L-cysteine (Sigma-Aldrich, cat. A9165), 10 mM nicotinamide (Sigma-Aldrich, cat. N0636), 1X B-27 supplement (Thermo Fisher Scientific, cat. 17504044), 1X N-2 supplement (Thermo Fisher Scientific, cat. 17502048), 10 microM Y-27632 dihydrochloride (Tocris Bioscience, cat. 1254), and 50 ng/mL human EGF recombinant protein (Thermo Fisher Scientific, cat. PHG0311). The 485176-168-R4-J1-PDC line was cultured in Panc media, which includes all 6C/Colon 1B media components plus 100 ng/mL human FGF-10 (Thermo Fisher Scientific, cat. 100-26), 500 nM SB-431542 (Selleckchem, cat. S1067), and gastrin (Tocris, cat. 3006).
# […]
# [1] = curve of first compound, second compound 0.0316 µM
# [2] = curve of first compound, second compound 0.1 µM
# [3] = curve of first compound, second compound 0.316 µM
# [4] = curve of first compound, second compound 1 µM
# [5] = curve of first compound, second compound 3.16 µM
# [6] = curve of first compound, second compound 10 µM
# [7] = second compound 0.0316 µM, first compound 0.0316 µM
# [8] = second compound 0.0316 µM, first compound 0.1 µM
# [9] = second compound 0.0316 µM, first compound 0.316 µM
# [10] = second compound 0.0316 µM, first compound 1 µM
# [11] = second compound 0.0316 µM, first compound 3.16 µM
# [12] = second compound 0.0316 µM, first compound 10 µM
# [13] = second compound 0.1 µM, first compound 0.0316 µM
# [14] = second compound 0.1 µM, first compound 0.1 µM
# [15] = second compound 0.1 µM, first compound 0.316 µM
# [16] = second compound 0.1 µM, first compound 1 µM
# [17] = second compound 0.1 µM, first compound 3.16 µM
# [18] = second compound 0.1 µM, first compound 10 µM
# [19] = second compound 0.316 µM, first compound 0.0316 µM
# [20] = second compound 0.316 µM, first compound 0.1 µM
# [21] = second compound 0.316 µM, first compound 0.316 µM
# [22] = second compound 0.316 µM, first compound 1 µM
# [23] = second compound 0.316 µM, first compound 3.16 µM
# [24] = second compound 0.316 µM, first compound 10 µM
# [25] = second compound 1 µM, first compound 0.0316 µM
# [26] = second compound 1 µM, first compound 0.1 µM
# [27] = second compound 1 µM, first compound 0.316 µM
# [28] = second compound 1 µM, first compound 1 µM
# [29] = second compound 1 µM, first compound 3.16 µM
# [30] = second compound 1 µM, first compound 10 µM
# [31] = second compound 3.16 µM, first compound 0.0316 µM
# [32] = second compound 3.16 µM, first compound 0.1 µM
# [33] = second compound 3.16 µM, first compound 0.316 µM
# [34] = second compound 3.16 µM, first compound 1 µM
# [35] = second compound 3.16 µM, first compound 3.16 µM
# [36] = second compound 3.16 µM, first compound 10 µM
# [37] = second compound 10 µM, first compound 0.0316 µM
# [38] = second compound 10 µM, first compound 0.1 µM
# [39] = second compound 10 µM, first compound 0.316 µM
# [40] = second compound 10 µM, first compound 1 µM
# [41] = second compound 10 µM, first compound 3.16 µM
# [42] = second compound 10 µM, first compound 10 µM
# 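Further: spheroids exposed to agents for seven days before readout.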
# 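Wherever viability, T/C is given: percent of vehicle control viability where 100% = DMSO wells.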
structure (smiles),measurement,setting,value
CC(C)n1c(=O)n(C)c2cnc3cc(F)c(-c4ccc(OCCCN5CCCCC5)nc4)cc3c21 + CN(C)c1ccc(Nc2c3ccc(NC(=O)CCN4CCCC4)cc3nc3cc(NC(=O)CCN4CCCC4)ccc23)cc1,IC50,[1],> 10 µM
same,IC50,[2],> 10 µM
same,IC50,[3],> 10 µM
same,IC50,[4],> 10 µM
same,IC50,[5],7.97 µM
same,IC50,[6],1.2 µM
same,"viability, T/C",[7],105%
same,"viability, T/C",[8],111%
same,"viability, T/C",[9],100%
same,"viability, T/C",[10],91.7%
same,"viability, T/C",[11],97%
same,"viability, T/C",[12],56%
same,"viability, T/C",[13],109%
same,"viability, T/C",[14],107%
same,"viability, T/C",[15],112%
same,"viability, T/C",[16],101%
same,"viability, T/C",[17],88.2%
same,"viability, T/C",[18],68.2%
same,"viability, T/C",[19],107%
same,"viability, T/C",[20],101%
same,"viability, T/C",[21],92.2%
same,"viability, T/C",[22],91.3%
same,"viability, T/C",[23],85.2%
same,"viability, T/C",[24],56.2%
same,"viability, T/C",[25],92.6%
same,"viability, T/C",[26],83.4%
same,"viability, T/C",[27],101%
same,"viability, T/C",[28],82.7%
same,"viability, T/C",[29],74.5%
same,"viability, T/C",[30],54.3%
same,"viability, T/C",[31],83.7%
same,"viability, T/C",[32],80.2%
same,"viability, T/C",[33],86.4%
same,"viability, T/C",[34],64.1%
same,"viability, T/C",[35],66.6%
same,"viability, T/C",[36],46%
same,"viability, T/C",[37],78.7%
same,"viability, T/C",[38],84.5%
same,"viability, T/C",[39],60.3%
same,"viability, T/C",[40],55.1%
same,"viability, T/C",[41],33.3%
same,"viability, T/C",[42],7.2%
Cc1cccc(N(C)C(=O)C2C(O)CCN2c2nc(C)cc(C(F)(F)F)c2C#N)c1 (stereo not given),"viability, T/C",compound 0.0316 µM,98.5% and 93% and 97.9%
same,"viability, T/C",compound 0.1 µM,93.8% and 90.7% and 89.8%
same,"viability, T/C",compound 0.316 µM,90.9% and 103% and 97%
same,"viability, T/C",compound 1 µM,92.1% and 105% and 93.5%
same,"viability, T/C",compound 3.16 µM,97.1% and 97.4% and 96.8%
same,"viability, T/C",compound 10 µM,95.8% and 104% and 89.9%
same,IC50,curve of compound,> 10 µM
Nc1ccn(C2OC(CO)C(O)C2(F)F)c(=O)n1 (stereo not given),"viability, T/C",compound 0.0316 µM,94.4% and 88% and 85.7%
same,"viability, T/C",compound 0.1 µM,93.7% and 90.3% and 81.5%
same,"viability, T/C",compound 0.316 µM,74.7% and 78.5% and 86.1%
same,"viability, T/C",compound 1 µM,73.9% and 75.2% and 79.9%
same,"viability, T/C",compound 3.16 µM,80.9% and 58.4% and 67%
same,"viability, T/C",compound 10 µM,69% and 61% and 68.9%
same,IC50,curve of compound,> 10 µM
C=CCn1c(=O)c2cnc(Nc3ccc(N4CCN(C)CC4)cc3)nc2n1-c1cccc(C(C)(C)O)n1 + Cc1[nH]c2ccc(F)cc2c1-c1nc2c3cccnc3c3ncccc3c2[nH]1,IC50,[1],> 10 µM
same,IC50,[2],> 10 µM
same,IC50,[3],> 10 µM
same,IC50,[4],0.558 µM
same,IC50,[5],< 0.0316 µM
same,IC50,[6],0.455 µM
same,"viability, T/C",[7],88.7%
same,"viability, T/C",[8],87.8%
same,"viability, T/C",[9],71.1%
same,"viability, T/C",[10],63.7%
same,"viability, T/C",[11],68.8%
same,"viability, T/C",[12],73.9%
same,"viability, T/C",[13],90.3%
same,"viability, T/C",[14],90%
same,"viability, T/C",[15],84.3%
same,"viability, T/C",[16],79.6%
same,"viability, T/C",[17],63.5%
same,"viability, T/C",[18],71.8%
same,"viability, T/C",[19],83.1%
same,"viability, T/C",[20],83.1%
same,"viability, T/C",[21],68.7%
same,"viability, T/C",[22],57.6%
same,"viability, T/C",[23],74%
same,"viability, T/C",[24],67.1%
same,"viability, T/C",[25],70.9%
same,"viability, T/C",[26],55.3%
same,"viability, T/C",[27],52.1%
same,"viability, T/C",[28],49.9%
same,"viability, T/C",[29],50.9%
same,"viability, T/C",[30],41.3%
same,"viability, T/C",[31],12.9%
same,"viability, T/C",[32],8.26%
same,"viability, T/C",[33],11.1%
same,"viability, T/C",[34],5.9%
same,"viability, T/C",[35],9.96%
same,"viability, T/C",[36],8.31%
same,"viability, T/C",[37],63.5%
same,"viability, T/C",[38],58.5%
same,"viability, T/C",[39],47.3%
same,"viability, T/C",[40],47%
same,"viability, T/C",[41],50%
same,"viability, T/C",[42],38.1%
CC1COCCN1c1cc(C2(O)CC3CCC(C2)O3)c2cnn(-c3ccn[nH]3)c2n1 (stereo not given),"viability, T/C",compound 0.0316 µM,86.4% and 103% and 91.5%
same,"viability, T/C",compound 0.1 µM,85.4% and 80.9% and 79.5%
same,"viability, T/C",compound 0.316 µM,74.2% and 74.5% and 71.8%
same,"viability, T/C",compound 1 µM,48.6% and 56% and 53.5%
same,"viability, T/C",compound 3.16 µM,37.3% and 46.2% and 47.5%
same,"viability, T/C",compound 10 µM,28.3% and 38.1% and 36.4%
same,IC50,curve of compound,1.01 µM and 2.21 µM and 1.99 µM
